Data: patent US20250154109A1, “SODIUM CHANNEL BLOCKING COMPOUNDS, DERIVATIVES THEREOF, AND METHODS OF THEIR USE” (LATIGO BIOTHERAPEUTICS, INC, priority 2022, published 2025)
pIC50: −log10 of the molar value. Where two headings read alike, the source gives them in different places.

Biological target: human Nav1.8 (Homo sapiens, UniProt Q9Y5Y9)
Assay: SyncroPatch384PE assay (automated patch clamp)
Assay type: cell-based
Settings: human Nav1.8/b3 CHO cells
[1] = inactivated state block (P2 measurement), read-out: P2 IC50
[2] = resting state block (P1 measurement), read-out: P1 IC50

Chain of human Nav1.8 (Q9Y5Y9 whole entry): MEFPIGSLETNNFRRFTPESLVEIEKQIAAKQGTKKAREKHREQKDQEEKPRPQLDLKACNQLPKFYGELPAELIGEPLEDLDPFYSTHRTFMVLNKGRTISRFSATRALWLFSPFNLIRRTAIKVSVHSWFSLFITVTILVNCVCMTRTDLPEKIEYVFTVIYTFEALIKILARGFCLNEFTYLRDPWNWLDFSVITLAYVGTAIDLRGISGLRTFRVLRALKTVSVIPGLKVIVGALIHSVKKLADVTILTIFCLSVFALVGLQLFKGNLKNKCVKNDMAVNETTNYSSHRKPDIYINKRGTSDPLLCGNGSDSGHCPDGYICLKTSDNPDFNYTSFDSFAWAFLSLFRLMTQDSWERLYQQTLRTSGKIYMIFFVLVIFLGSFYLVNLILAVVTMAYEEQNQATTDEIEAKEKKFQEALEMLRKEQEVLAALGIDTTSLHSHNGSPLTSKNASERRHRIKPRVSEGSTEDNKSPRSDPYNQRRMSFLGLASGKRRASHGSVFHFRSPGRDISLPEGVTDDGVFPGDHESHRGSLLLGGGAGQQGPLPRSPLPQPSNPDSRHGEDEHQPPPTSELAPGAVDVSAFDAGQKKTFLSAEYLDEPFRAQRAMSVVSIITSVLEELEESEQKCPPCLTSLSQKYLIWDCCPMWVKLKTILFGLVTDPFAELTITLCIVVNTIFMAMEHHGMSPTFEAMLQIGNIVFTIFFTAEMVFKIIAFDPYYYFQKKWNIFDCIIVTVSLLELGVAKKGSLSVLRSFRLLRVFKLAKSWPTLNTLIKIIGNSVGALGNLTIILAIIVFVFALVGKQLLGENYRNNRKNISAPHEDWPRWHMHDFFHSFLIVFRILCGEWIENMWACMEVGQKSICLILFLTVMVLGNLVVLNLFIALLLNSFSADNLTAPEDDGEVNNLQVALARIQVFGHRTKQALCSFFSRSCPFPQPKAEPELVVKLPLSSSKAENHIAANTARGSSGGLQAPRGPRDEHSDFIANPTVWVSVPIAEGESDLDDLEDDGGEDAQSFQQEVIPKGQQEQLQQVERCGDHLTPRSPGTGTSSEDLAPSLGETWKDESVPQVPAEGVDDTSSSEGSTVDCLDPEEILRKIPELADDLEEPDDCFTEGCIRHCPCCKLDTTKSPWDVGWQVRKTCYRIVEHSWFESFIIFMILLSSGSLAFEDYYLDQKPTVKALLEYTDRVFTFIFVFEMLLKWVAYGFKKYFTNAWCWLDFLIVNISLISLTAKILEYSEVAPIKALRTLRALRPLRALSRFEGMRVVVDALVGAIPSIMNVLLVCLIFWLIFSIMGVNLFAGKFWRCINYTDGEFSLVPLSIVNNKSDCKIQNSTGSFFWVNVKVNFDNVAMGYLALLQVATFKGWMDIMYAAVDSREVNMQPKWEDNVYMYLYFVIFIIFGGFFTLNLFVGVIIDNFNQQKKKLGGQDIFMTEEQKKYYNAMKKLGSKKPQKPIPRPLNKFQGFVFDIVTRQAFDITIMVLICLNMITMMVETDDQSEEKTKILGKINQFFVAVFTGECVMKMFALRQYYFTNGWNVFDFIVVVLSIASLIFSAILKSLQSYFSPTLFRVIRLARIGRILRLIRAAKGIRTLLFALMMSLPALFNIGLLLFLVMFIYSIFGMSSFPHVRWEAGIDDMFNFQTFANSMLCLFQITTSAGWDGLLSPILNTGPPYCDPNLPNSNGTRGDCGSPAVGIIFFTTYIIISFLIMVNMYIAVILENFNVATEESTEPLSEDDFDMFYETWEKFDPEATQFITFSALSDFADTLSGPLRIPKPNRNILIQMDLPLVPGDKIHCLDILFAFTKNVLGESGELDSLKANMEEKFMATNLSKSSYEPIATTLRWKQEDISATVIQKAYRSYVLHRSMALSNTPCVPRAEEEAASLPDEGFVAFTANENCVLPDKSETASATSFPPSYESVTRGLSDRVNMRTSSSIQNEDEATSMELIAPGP

| SMILES | pIC50 [1] | pIC50 [2] |
| --- | --- | --- |
| C[S@](=N)(=O)c1cccc(NC(=O)c2c(N3CCCC(F)(F)CC3)cnc(C(F)(F)F)c2Cl)c1 [Example 207, (S)-3-chloro-5-(4,4-difluoroazepan-1-yl)-N-(3-(S-methylsulfonimidoyl)phenyl)-2-(trifluoromethyl)isonicotinamide] | 7.30 to 8.30 | 7.30 to 8.30 |
| Cc1c(C(=O)Nc2cccc([S@@](C)(=O)=NC(=O)CO)c2)c(N2CCCC(F)(F)CC2)nc(C(F)(F)F)c1-c1cnn(C)c1 [Example 191, (R)-2-(4,4-difluoroazepan-1-yl)-N-(3-(N-(2-hydroxyacetyl)-S-methylsulfonimidoyl)phenyl)-4-methyl-5-(1-methyl-1H-pyrazol-4-yl)-6-(trifluoromethyl)nicotinamide] | ≥ 8.30 | ≥ 8.30 |
| Cc1c(-c2ccc(C(F)(F)F)cc2)cnc(N2CCCC(F)(F)CC2)c1C(=O)Nc1cccc([S@](C)(=N)=O)c1 [Example 169, (R)-2-(4,4-difluoroazepan-1-yl)-4-methyl-N-(3-(S-methylsulfonimidoyl)phenyl)-5-(4-(trifluoromethyl)phenyl)nicotinamide] | ≥ 8.30 | ≥ 8.30 |
| Cc1c(C#N)cnc(N2CCCC(F)(F)CC2)c1C(=O)NC12CC(C(N)=O)(C1)C2 [Example 136, N-(3-carbamoylbicyclo[1.1.1]pentan-1-yl)-5-cyano-2-(4,4-difluoroazepan-1-yl)-4-methylnicotinamide] | ≥ 8.30 | ≥ 8.30 |
| C[S@@](=N)(=O)c1cccc(NC(=O)c2cc(Cl)c(C(F)(F)F)cc2N2CCO[C@H](C(F)(F)F)C2)c1 [Example 215, 5-chloro-N-(3-((R)—S-methylsulfonimidoyl)phenyl)-4-(trifluoromethyl)-2-((S)-2-(trifluoromethyl)morpholino)benzamide] | 7.30 to 8.30 | 7.30 to 8.30 |
| Cc1c(-c2ccccc2)cnc(N2CCCC(F)(F)CC2)c1C(=O)Nc1cccc([S@@](C)(=N)=O)c1 [Example 103, (S)-2-(4,4-difluoroazepan-1-yl)-4-methyl-N-(3-(S-methylsulfonimidoyl)phenyl)-5-phenylnicotinamide] | ≥ 8.30 | ≥ 8.30 |
| Cc1c(-c2cnn(C)c2)cnc(N2CCCC(F)(F)CC2)c1C(=O)Nc1cccc([S@](C)(=N)=O)c1 [Example 45, (R)-2-(4,4-difluoroazepan-1-yl)-4-methyl-5-(1-methyl-1H-pyrazol-4-yl)-N-(3-(S-methylsulfonimidoyl)phenyl)nicotinamide] | 7.00 to 7.30 | 7.00 to 7.30 |
| Cc1c(Cl)cnc(N2CCCC(F)(F)CC2)c1C(=O)Nc1cccc(S(C)(=N)=O)c1 (stereo not shown) [Example 95, 5-chloro-2-(4,4-difluoroazepan-1-yl)-4-methyl-N-(3-(S-methylsulfonimidoyl)phenyl)nicotinamide] | ≥ 8.30 | ≥ 8.30 |
| CS(=N)(=O)c1cccc(NC(=O)c2cc(C(F)(F)F)nnc2N2CCCC(F)(F)CC2)c1 (stereo not shown) [Example 6, 3-(4,4-difluoroazepan-1-yl)-N-(3-(S-methylsulfonimidoyl)phenyl)-6-(trifluoromethyl)pyridazine-4-carboxamide] | 7.30 to 8.30 | 7.30 to 8.30 |
| Cc1c(C(F)(F)F)nnc(N2CCCC(F)(F)CC2)c1C(=O)Nc1cccc([S@@](C)(=O)=NC(=O)C2(N)CCC2)c1 [Example 234, (R)-N-(3-(N-(1-aminocyclobutane-1-carbonyl)-S-methylsulfonimidoyl)phenyl)-3-(4,4-difluoroazepan-1-yl)-5-methyl-6-(trifluoromethyl)pyridazine-4-carboxamide] | ≥ 8.30 | ≥ 8.30 |
| Cc1c(-c2cnn(C)c2)cnc(N2CCCC(F)(F)CC2)c1C(=O)Nc1ccc(F)c([S@@](C)(=N)=O)c1 [Example 213, (S)-2-(4,4-difluoroazepan-1-yl)-N-(4-fluoro-3-(S-methylsulfonimidoyl)phenyl)-4-methyl-5-(1-methyl-1H-pyrazol-4-yl)nicotinamide] | 6.70 to 7.00 | 6.70 to 7.00 |
